# Data: US8841087B2 (priority 2008, dated 2014)
# Tested on: clinical strains of Mycobacterium tuberculosis
# Assay: Reference phenotypic test of antibiotic sensitivity in solid medium
# Format: cell-based
# Conditions: six clinical strains
structure (smiles),measurement,setting,value
CC[C@@H](CO)NCCN[C@@H](CC)CO [ethambutol],sensitivity at critical concentration,"ethambutol, 5 μg/ml",sensitive
NNC(=O)c1ccncc1 [isoniazid],sensitivity at critical concentration,"isoniazid, 0.2 μg/ml",sensitive
[H]/N=C(/N)N[C@H]1[C@H](O)[C@@H](O)[C@H](O[C@@H]2O[C@@H](C)[C@](O)(C=O)[C@H]2O[C@@H]2O[C@@H](CO)[C@H](O)[C@@H](O)[C@@H]2NC)[C@@H](N/C(N)=N\[H])[C@@H]1O [streptomycin],sensitivity at critical concentration,"streptomycin, 5 μg/ml",sensitive
